Source: US20220143148A1, “COMPOSITIONS AND METHODS FOR MODULATING CGRP SIGNALING TO REGULATE INTESTINAL INNATE LYMPHOID CELLS” (The Broad Institute, Inc., priority 2019, published 2022)

Tested on: intestinal ILC2s
Assay: OVA food allergy model with intragastric α-CGRP
Type: in vivo, mouse
Details: α-CGRP intragastrically together with OVA, pre-sensitized mice; P=0.02, P=0.009, t-test
Excerpt: Intraperitoneal administration of α-CGRP impaired IL-25-induced expansion of KLRG1^+ ILC2s (FIGS. 5B and 12A), consistent with the in vitro results. Recent work has shown that intestinal KLRG1^+ ILC2s can migrate to mesenteric lymph nodes (mLNs) and other tissues during inflammation via sphingosine 1-phosphate (S1P)-mediated chemotaxis (Huang et al., 2018). To determine whether α-CGRP primarily impacts intestinal or mLN ILC2s, Applicants relied on the fact that intestinal GATA3^+ ILC2s are generally phenotypically KLRG1^+ST2^− (data not shown), whereas mLN ILC2s are mainly ST2^+ at steady state (FIG. 5C). IL-25 administration increased the frequency of both KLRG1^+ST2^− inflammatory ILC2s and ST2^+ ILC2s in mLNs (FIGS. 5C-E and 12B). […] Thus, α-CGRP preferentially regulates the response of intestinal KLRG1^+ST2^− ILC2s. […] Taken together, α-CGRP antagonized expansion of intestinal KLRG1^+ ILC2s in two different type 2 inflammatory models.
To induce allergic reaction to OVA, 6 to 7 weeks old mice were sensitized twice, two weeks apart, with 50 μg of OVA plus 1 mg of aluminum potassium sulfate adjuvant via intraperitoneal injection. Two weeks later, mice were orally administered with 50 mg of OVA on every other day for a total of five times. […]
Flow cytometry and cell sorting. […] Flow cytometry was performed on Cytoflex (Beckman Coulter) and analyzed with FlowJo software. […]

Substance: α-CGRP: neuropeptide alpha-calcitonin gene-related peptide, encoded by exon 5 of Calca; administered as peptide
- expansion of intestinal ILC2s in a food allergy model: significantly suppressed
